Tests used:
[1] = tested on: Plasmodium vinckei, petterei or chabaudi; test: Therapeutic index in infected mice (antimalaria activity compared with semi-chronic toxicity); assay type: in vivo; conditions: i.p. or s.c., twice a day for four days, ratio of activity over toxicity (LD50)
Method: In order to evaluate the therapeutic index of the different products, the activity of these products was tested in vivo and compared with […] toxicity in animals. This activity was measured using the test described by PETERS W. (Chemotherapy and Drug resistance in Malaria, 1970). A compound was administered for four consecutive days to mice previously infected with Plasmodium vinckei, petterei or chabaudi. The said compound was dissolved in a 0.9% NaCl solution. The preparations were thus administered intraperitoneally or subcutaneously in male Swiss mice infected by intravenous injection of Plasmodium petterei or Plasmodium chadaudi (10^6 infected cells). The compound was administered twice a day for four consecutive days, the first injection being performed two hours after the infestation and the second, 10 hours later. The parasitemia was determined on blood smears the day after the end of treatment. Toxicity was measured in vivo following the same schedule, the animals having received, under the same administration conditions as above, two injections per day for four days (semi-chronic toxicity). The results are expressed in lethal dose 50 (LD50), i.e. the dose causing death in 50% of the animals.
The results of these trials are summarized in Table I, below, and expressed as therapeutic index, or the ratio of activity over toxicity measured under the identical conditions described above.

[2] = tested on: Babesia bovis, Babesia canis; test: In vitro antibabesia activity, (3H) hypoxanthine incorporation; assay type: cell-based; conditions: score from ED50 of (3H) hypoxanthine incorporation
Text: The screening process for antimalaria activity, based on parasite incorporation of (^3 H) hypoxanthine was used to test the antimetabolic activity of such components against Babesia bovis, Babesia canis. A tight relationship was found between the rate of (^3 H) hypoxanthine incorporation using standard measurements and the percentage of parasitized cells determined by microscopy. […] The score was ++ for the same activity at a concentration of 0.01 to 0.1 micromoles and finally + for a concentration under or equal to 1 micromole.

[3] = tested on: P. falciparum (FVO isolate); test: Antimalaria activity of G25 in Aotus lemurinus monkey infected by P. falciparum FVO isolate; assay type: in vivo
Text: Besides chimpanzees, only two South American monkey species, Aotus and Saimiri seirius, can be infected by P. falciparum. Currently, infection of Aotus monkeys with the human parasite is the best, and quasi-unique, model for evaluating therapeutic or vaccinal interventions against malaria (Collins W. E., Gallaud C. G., Sullivan J. S., and Morris C. L., "Selections of different strains of Plasmodium falciparum for testing blood stages in Aotus nancymal monkeys" An. J. Trop. Med. Hyg., 1994, 51 (2) 224-232).
The antimalaria activity was thus evaluated in the Aotus lemurinus monkey infected by the FVO (falciparum Vietnam Oaknoll) isolate of P. falciparum. This isolate is chloroquine-resistant and inevitably lethal for Aotus monkeys at the "Fundacion Centro de Primates" at the University del Valle, Cali, Colombia.
Treatment with G25 (dissolved in 0.9% NaCl) was initiated when the parasitemia reached 5.6%; 16 doses (0.2 mg/kg b.i.d. for 8 days) were given. […] The parasitemia in a monkey treated by combination sulfadoxine/pyrimethamine (FANSIDAR) is given for comparison.
In all, 15 monkeys were infected, then treated with G25 given by intramuscular injections at doses ranging from 0.010 to 0.2 mg/kg.

[4] = Maximal tolerable dose and therapeutic index in the monkey; conditions: in vivo

| SMILES | Therapeutic index [1] | Antibabesia activity at 10 millimoles [2] | Decline in parasitemia ([3]; FVO isolate, 0.2 mg/kg b.i.d. for 8 days, treatment started at 5.6% parasitemia) | minimal effective dose ([3]; Plasmodium falciparum, in Primates, im, 4380 h, intramuscular, 6 months follow-up, read-out: Lowest dose with complete cure (validated by PCR), no recurrences) | Activity at 0.01 mg/kg ([3]; intramuscular, 0.01 mg/kg) | MTD [4] | selectivity ratio ([4]; read-out: therapeutic index (LD50/ED50) in the monkey) |
| --- | --- | --- | --- | --- | --- | --- | --- |
| CCC[N+](CCC)(CCC)CCCCCCCCCCCCCCCC[N+](CCC)(CCC)CCC.[Br-].[Br-] [EXAMPLE 9, N,N,N,N',N',N'-hexapropyl-1,16-hexadecanediaminium dibromide] | 36 | +++ (a 50% inhibition of (^3 H) hypoxanthine incorporation (ED50), these molecules having a concentration less than or equal to 0.01 micromoles) | – | – | – | – | – |
| CCC[N+](CCC)(CCC)CCCCCCCCCCCCCCCC[N+](CCC)(CCC)CCC.[Br-].[Br-] [EXAMPLE 12, N,N,N,N',N',N'-hexapropyl-1,16-hexadecanediaminium dibromide] | 11 | ++ (the same activity at a concentration of 0.01 to 0.1 micromoles) | – | – | – | – | – |
| C[N+]1(CCCCCCCCCCCCCC[N+]2(C)CCCC2CO)CCCC1CO (stereo not shown) [EXAMPLE 18, 1,1'-(1,14-tetradecanediyl)bis(2-hydroxymethl-1-methylpyrrolidium) dibromide] | 22 | +++ (a 50% inhibition of (^3 H) hypoxanthine incorporation (ED50), these molecules having a concentration less than or equal to 0.01 micromoles) | – | – | – | – | – |
| C[N+]1(CCCCCCCCCCCCCCCC[N+]2(C)CCCC(CO)C2)CCCC(CO)C1 (stereo not shown) [EXAMPLE 20] | 17 | +++ (a 50% inhibition of (^3 H) hypoxanthine incorporation (ED50), these molecules having a concentration less than or equal to 0.01 micromoles) | – | – | – | – | – |
| C[N+]1(CCCCCCCCCCCCCCCC[N+]2(C)CCCC2)CCCC1 [Example G25] | – | – | decline in parasitemia was evident at the second dose | 0.03 mg/kg | active (parasite clearance) but did not lead to complete cure (recurrence observed) | ~1.5 mg/kg | > 50 |
